# Measurements published in patent US11845992B2, “Compositions and methods for predicting response and resistance to CDK4/6 inhibition” (DANA-FARBER CANCER INSTITUTE, INC., priority 2017, dated 2023).
# Entries after “also recorded” stand apart in the source; their conditions may differ. Where two headings read alike, the source gives them in different places.
# Legend:
# [1] = system: T47D cells; test: Growth inhibition assay, 5 days, normalized to DMSO; format: cell-based; settings: for change of GI50 by CDK6 overexpression: CDK6 overexpressing vs parental T47D; for change of GI50 by miR-432 overexpression: parental T47D overexpressing miR-432 (FIG. 10A)
# Procedure: (§1) Subsequently, cell growth was quantified and normalized to DMSO treated control.
# Subsequently, cell growth was quantified and normalized to DMSO treated control. BLISS Synergy/antagonism score was modelled using Combenefit software. FIG. 12C is a graph, wherein T47D parental and resistant cells were treated with escalating dose of galunisertib for 5 days. Subsequently, cell growth was quantified and normalized to DMSO treated control.
# [2] = system: MCF7 cells; test: as above; format: cell-based; settings: for change of GI50 by CDK6 overexpression: CDK6 overexpressing vs parental MCF7 (printed MCG-7); for change of GI50 by miR-432 overexpression: parental MCF7 overexpressing miR-432 (FIG. 10B)
# Description: as §1
# [3] = system: parotid cancer harboring CDKN2A/B loss; settings: one patient; cited from earlier work
# [4] = system: T47D cells; test: Flow cytometry cell cycle analysis; format: cell-based
# [5] = system: estrogen receptor positive (ER+) and HER2 negative breast cancer; settings: patients; previous results; cited from earlier work
# [6] = system: GFP-positive parental T47D cells; test: GFP co-culture resistance transmission assay; settings: 72 hours co-culture, exosome production inhibited
# Procedure: FIG. 11A is a bar graph, wherein cells were treated with either DMSO, 10 μM GW4869 or 10 μM manumycin A for 72 hours prior to exosome harvest and quantification. […] Subsequently, cells were harvested and analyzed by flow cytometry for GFP expression and cell cycle profile.
# [7] = system: T47D cells; test: cells; format: cell-based; settings: for CC50: Homo sapiens, T47D
# Procedure: Cells were incubated for 14 to 21 days to allow colony formation. Colonies were fixed and permeabilised using Carnoy's fixative (75% methanol, 25% Acetic acid) and stained with 1% crystal violet and counted.
# Cells stably expressing shRNA, miRNA or cDNA were generated using lentiviral transfection, as previously described using the pLKO.1 or pLEX-307 backbone (Moffat, J. et al., Cell 124: 1283-1298 (2006)). Multiple stable cell lines were generated for each protein knockdown; shRNA sequences were obtained from the RNAi Consortium database (Moffat, J. et al., Cell 124: 1283-1298 (2006)). CDK6 GeneArt cDNA sequences (K43M (Hu, M. G. et al., Blood 117: 6120-6131 (2011)), S178P (Bockstaele, L. et al., Mol. Cell Biol. 29: 4188-4200 (2009)) and R31C (Hu, M. G. et al., Blood 117: 6120-6131 (2011)) were purchased from ThermoFisher and cloned into the pLEX-307 backbone. For miRNA overexpression, ˜500 bp of DNA encompassing each miRNA sequence was PCR purified and cloned into the pLEX-307 backbone, miRNA mimics were purchased and transfected into cells as a positive control for miRNA detection. Protein expression/miRNA expression/knockdown was confirmed after 5 days of selection in puromycin (1 μg/ml for both T47D and MCF7).
# CDK6 by CRIPSR/Cas9 was performed as previously described (Sanjana, N. E. et al., Nat. Meth 11: 783-784 (2014)). The following sgRNA sequence was cloned into the LentiCRIPSR v2 vector-sgCDK6-7 (targeting the 5′UTR): […] (SEQ ID NO: 2). Cells were selected using 1 μg/ml puromycin and protein knockout confirmed after ˜12 days.
# [8] = system: palbociclib resistant MCF7 xenografts; test: Palbociclib resistant MCF7 xenograft with treatment holiday; format: in vivo, mice; settings: 100 mg/kg/day oral gavage, after 28 days treatment holiday
# Procedure: Female nude mice (NCr-Foxn1^NU, Tactonic Laboratories) were maintained and handled in isolators under specific pathogen-free conditions for tissue distribution and efficacy studies in accordance with local guidelines and therapeutic interventions approved by the Animal Care and Use Committee of Dana-Farber Cancer Institute. Mice were implanted with 17β-estradiol pellets (0.36 mg, 90-day release, Innovative Research of America) prior to cell implantation. […] Tumors were measured throughout the experiment and relative tumor volume calculated.
# [9] = system: CDK6 protein in T47D cells; test: Western blot of CDK6 protein expression; format: cell-based; settings: palbociclib exposure up to 6 days
# Procedure: Cells were lysed with RIPA buffer (10 mM Tris, pH 7.5, 1% Nonidet-P40, 2 mM Na2EDTA, 150 mM NaCl) plus protease inhibitors (Calbiochem) and protein estimation was performed by Pierce assay. Gel electrophoresis was performed with Bis-Tris 4-12% (v/v) polyacrylamide gradient gels (ThermoFisher). Samples were transferred onto Immobilin-P PVDF membrane (EMD Millipore), and probed with primary antibodies against either CDK1, CDK2, CDK4, CDK6, Cyclin D1, Cyclin D3, Cyclin E, p2′7, SMAD3, SMAD4, TGFβ, TGFβR3 (Santa Cruz), pRB (Cell signaling) or actin (Genescript). Goat anti-rabbit or goat anti-mouse HRP-linked secondary antibodies (1:1000; Dako) and ECL reagent (Perkin Elmer) were used for protein detection. Cytokines were analyzed using the Human Cytokine Array Kit performed per manufactures instructions (R&D Systems).
# [10] = system: T47D cells; test: Annexin V apoptosis assay; settings: 48 hours
smiles,measurement,setting,value
CN(C)C(=O)c1cc2cnc(Nc3ccc(N4CCNCC4)cn3)nc2n1C1CCCC1 [ribociclib],change of GI50 by CDK6 overexpression,[1],significantly increased
same,cross-resistance of palbociclib resistant cells,[1]; palbociclib resistant (100 nM) T47D vs parental,significantly more resistant
same,change of GI50 by miR-432 overexpression,[1],significantly increased
same,change of GI50 by CDK6 overexpression,[2],significantly increased
same,cross-resistance of palbociclib resistant cells,[2]; palbociclib resistant (100 nM) MCF7 vs parental,significantly more resistant
same,change of GI50 by miR-432 overexpression,[2],significantly increased
same,clinical response,[3],partial response
Cc1cccc(-c2nn3c(c2-c2ccnc4ccc(C(N)=O)cc24)CCC3)n1 [galunisertib],effect on palbociclib G1 arrest,"[4]; in combination with palbociclib, T47D, 24 hours",prevent G1 arrest
same,interaction with palbociclib (BLISS synergy/antagonism),"[1]; combined with palbociclib, parental and resistant T47D cells",significantly antagonistic
same,effect on growth when used alone,"[1]; parental or resistant T47D cells, 5 days",no effect
N#Cc1ccc(C(c2ccc(C#N)cc2)n2cncn2)cc1 [letrozole],progression free survival,[5],14.5 months
O=C(/C=C/c1ccc(/C=C/C(=O)Nc2ccc(C3=NCCN3)cc2)cc1)Nc1ccc(C2=NCCN2)cc1 [GW4869],G1 population of GFP-positive parental cells co-cultured with resistant cells,[6],significant increase
CCCC[C@@H](C)/C=C(C)/C=C(\C)C(=O)NC1=C[C@@](O)(/C=C/C=C/C=C/C(=O)NC2=C(O)CCC2=O)[C@@H]2O[C@@H]2C1=O [manumycin A],G1 population of GFP-positive parental cells co-cultured with resistant cells,[6],significant increase
CC(=O)c1c(C)c2cnc(Nc3ccc(N4CCNCC4)cn3)nc2n(C2CCCC2)c1=O [palbociclib],sub-G1 DNA content compared to control cells,"[4]; CDK6-depleted T47D cells, 100 nM, 24 hours",significantly more
same,cells in the G1 phase of the cell cycle,"[4]; T47D, 100 nM, initial exposure (week 0)",more than 90%
same,cell cycle effect in parental cells,"[4]; parental T47D, 100 nM or 300 nM, persisted for 14 days",sustained G1 arrest
same,cell cycle arrest on re-challenge,"[4]; resistant cells after 6 weeks in drug-free media, 100 nM for 24 hours",indistinguishable from parental cells
same,CC50,"[7]; read-out: LC50, survival after palbociclib treatment, CDK6 knockout T47D cells (sgK6-7)",0.0342 µM
same,CC50,"[7]; read-out: LC50, survival after palbociclib treatment, INK4-insensitive CDK6 (R31C) T47D cells",0.632 µM
same,CC50,"[7]; read-out: LC50, survival after palbociclib treatment, constitutively active CDK6 (S178P) T47D cells",0.269 µM
same,CC50,"[7]; read-out: LC50, survival after palbociclib treatment, control T47D cells (sgNT)",0.0662 µM
same,CC50,"[7]; read-out: LC50, survival after palbociclib treatment, kinase dead CDK6-expressing T47D cells (K43M)",0.0266 µM
same,CC50,"[7]; read-out: LC50, survival after palbociclib treatment, wild-type CDK6 (WT) T47D cells",0.229 µM
same,survival after palbociclib treatment compared to non-target shRNA control,[7]; shRNA-mediated CDK6-depleted T47D cells,significantly lower survival
same,change of GI50 by CDK6 overexpression,[1],significantly increased
same,change of GI50 by miR-432 overexpression,[1],significantly increased
same,change of GI50 by CDK6 overexpression,[2],significantly increased
same,change of GI50 by miR-432 overexpression,[2],significantly increased
same,tumor burden after re-introduction of treatment,[8],substantial regression of all but 1 tumor; also recorded: marked decrease
same,effect on CDK6 expression,[9],no observable effect
same,apoptosis,[10]; CDK6 knockdown and knockout T47D cells,marked increase
same,effect on apoptotic fraction,[10]; shNT-expressing T47D cells,no effect
